Results from ChEMBL document CHEMBL3045930, “Study on the quantitative structuretoxicity relationships of aconitine compounds basing on PCA-ANN method” (Med Chem Res, 2013).

Each molecule was assayed on Mus musculus (assay: Toxicity in po dosed Mus musculus (mouse)). Conditions: in vivo.
Format: organism-based
Design: unit not given here
In the case of `CCN1C[C@]2(C)CC[C@H](OC)[C@@]34C1[C@@]1(OCO[C@@]15C[C@H](OC)[C@H]1C[C@]3(O)[C@@H]5[C@H]1OC)[C@@H](OC(C)=O)[C@H]24`, the logLD50 is reported as 2.12. `CCN1C[C@@]2(COC)[C@H]3[C@@H](OC)[C@@H]4C1[C@]3([C@@H](OC)C[C@H]2OC(C)=O)[C@@H]1C[C@@]2(OC(C)=O)[C@H](OC(C)=O)[C@@H]1[C@]4(OC(C)=O)[C@@H](OC(C)=O)[C@@H]2OC` gave a logLD50 of 2.83. In the case of `CCN1C[C@]2(COC(=O)c3ccccc3N3C(=O)C[C@H](C)C3=O)CC[C@H](OC)[C@@]34C1[C@@]1(OCO[C@@]15C[C@H](OC)[C@H]1C[C@@H]3[C@@H]5[C@H]1OC)[C@@H](OC)[C@H]24` [ELATINE], the logLD50 is reported as 0.7. Molecule `CCN1C[C@]2(COC)[C@H](O)C[C@H](OC)[C@]34C1[C@@H]([C@H](OC)[C@H]23)[C@]1(OC(C)=O)[C@H]2[C@@H](OC(=O)c3ccccc3)[C@](O)(C[C@]24O)[C@@H](OC)[C@@H]1O` has a logLD50 of -0.66. With `CCN1C[C@@]2(COC)[C@H]3[C@@H](OC)[C@@H]4C1[C@]3([C@@H](OC)C[C@H]2OC(C)=O)[C@@H]1C[C@@]2(O)[C@H](OC(=O)c3ccccc3)[C@@H]1[C@]4(OC(C)=O)[C@@H](O)[C@@H]2OC` the logLD50 was -0.4. In the case of `Br.CCN1C[C@]2(COC)[C@H](O)C[C@H](OC)[C@]34C1[C@@H]([C@H](OC)[C@H]23)[C@]1(O)[C@H]2[C@@H](OC(=O)c3ccccc3)[C@](O)(C[C@H]24)[C@@H](OC)[C@@H]1O`, the logLD50 is reported as 1.41. `COC[C@]12CN(C)C3[C@H]4[C@H](OC)[C@H]1[C@@]3([C@@H](OC)C[C@H]2O)[C@@H]1C[C@@]2(O)[C@H](OC(=O)c3ccccc3)[C@@H]1[C@]4(O)[C@@H](O)[C@@H]2OC` gave a logLD50 of 1.32. In the case of `CCN1C[C@]2(COC)CC[C@H](OC)[C@]34C1[C@@H](C[C@H]23)[C@@]1(O)C[C@H](OC)[C@H]2C[C@@H]4[C@@H]1[C@H]2O`, the logLD50 is reported as -0.94. In the case of `CCN1C[C@@]2(COC)[C@H]3[C@@H](OC)[C@@H]4C1[C@]3([C@@H](OC)C[C@H]2OC(C)=O)[C@@H]1C[C@]2(O)[C@@H](OC)C[C@@]4(OC(C)=O)[C@H]1[C@H]2OC(=O)c1ccccc1`, the logLD50 is reported as 3.16. `CCN1C[C@]2(COC)CC[C@H](O)[C@]34C1[C@@](O)([C@@H](OC)[C@H]23)[C@@]1(O)C[C@H](OC)[C@H]2C[C@@H]4[C@@H]1[C@H]2O` showed a logLD50 of 2.04. `Br.COC[C@]12CN(C)C3[C@H]4[C@H](OC)[C@H]1[C@@]3([C@@H](OC)C[C@H]2O)[C@@H]1C[C@@]2(O)[C@H](OC(=O)c3ccccc3)[C@@H]1[C@]4(O)[C@@H](O)[C@@H]2OC` showed a logLD50 of 1.38. Molecule `COC[C@@]12CC[C@H](OC)[C@]34C([C@@H]([C@H](OC)[C@H]13)[C@]1(OC(C)=O)[C@H]3[C@@H](OC(=O)c5ccccc5)[C@](O)(C[C@H]34)[C@@H](OC)[C@@H]1O)N(C)C2` has a logLD50 of -0.33. For `CCN1C[C@]2(COC)[C@H](O)C[C@H](OC)[C@]34C1[C@@H]([C@H](OC)[C@H]23)[C@]1(OC(C)=O)[C@H]2[C@@H](OC(=O)c3ccccc3)[C@](O)(C[C@H]24)[C@@H](OC)[C@@H]1O` (stereo in doubt; 12), the logLD50 was -0.78. Work on `Br.CCN1C[C@]2(OC(=O)c3ccccc3NC(C)=O)CC[C@H](OC)[C@]34C1[C@@H](C[C@H]23)[C@@]1(O)C[C@H](OC)[C@H]2C[C@@H]4[C@]1(O)[C@H]2OC` yielded a logLD50 of 0.92. `CCN1C[C@@]2(COC)[C@H]3[C@@H](OC)[C@@H]4C1[C@]3([C@@H](OC)C[C@H]2OC(C)=O)[C@@H]1C[C@]2(OC(C)=O)[C@@H](OC)C[C@@]4(OC(C)=O)[C@H]1[C@H]2OC(C)=O` was tested, and the logLD50 was 2.18. Work on `Br.COC[C@@]12CC[C@H](OC)[C@]34C([C@@H]([C@H](OC)[C@H]13)[C@]1(OC(C)=O)[C@H]3[C@@H](OC(=O)c5ccccc5)[C@](O)(C[C@H]34)[C@@H](OC)[C@@H]1O)N(C)C2` yielded a logLD50 of -0.27. Molecule `COC[C@]12CN(C)C3[C@H]4[C@H](OC)[C@H]1[C@@]3([C@@H](OC)C[C@H]2O)[C@@H]1C[C@@]2(O)[C@H](OC(=O)c3ccccc3)[C@@H]1[C@]4(OC(C)=O)[C@@H](OC)[C@@H]2O` has a logLD50 of -1. `Br.CCN1C[C@]2(COC)[C@H](O)C[C@H](OC)[C@]34C1[C@@H]([C@H](OC)[C@H]23)[C@]1(OC(C)=O)[C@H]2[C@@H](OC(=O)c3ccccc3)[C@](O)(C[C@H]24)[C@@H](OC)[C@@H]1O` gave a logLD50 of -0.87. In the case of `CCN1C[C@@]2(COC)[C@H]3[C@@H](OC)[C@@H]4C1[C@]3([C@@H](OC)C[C@H]2OC(C)=O)[C@@H]1C[C@]2(OC(C)=O)[C@@H](OC)C[C@@]4(OC(C)=O)[C@H]1[C@H]2OC(=O)c1ccccc1`, the logLD50 is reported as 1.34. `COC[C@@]12CC[C@H](OC)[C@]34C([C@@H]([C@H](OC)[C@H]13)[C@]1(O)[C@H]3[C@@H](OC(=O)c5ccccc5)[C@](O)(C[C@H]34)[C@@H](OC)[C@@H]1O)N(C)C2` was tested, and the logLD50 was 1.36. Molecule `CCN1C[C@]2(COC)CC[C@H](O)[C@]34C1[C@@](O)([C@@H](OC)[C@H]23)[C@@]1(O)C[C@H](OC)[C@H]2C[C@@H]4[C@@H]1[C@H]2OC.Cl` has a logLD50 of 2.07. Molecule `Br.COC[C@]12CN(C)C3[C@H]4[C@H](OC)[C@H]1[C@@]3([C@@H](OC)C[C@H]2O)[C@@H]1C[C@@]2(O)[C@H](OC(=O)c3ccccc3)[C@@H]1[C@]4(OC(C)=O)[C@@H](O)[C@@H]2OC` has a logLD50 of -0.95. `CCN1C[C@]2(COC(=O)c3ccccc3N3C(=O)C[C@H](C)C3=O)CC[C@H](OC)[C@]34C1[C@@](O)([C@@H](OC)[C@H]23)[C@@]1(O)C[C@H](OC)[C@H]2C[C@@H]4[C@@H]1[C@H]2OC` showed a logLD50 of 0.48. Molecule `CCN1C[C@]2(OC(=O)c3ccccc3NC(C)=O)CC[C@H](OC)[C@]34C1[C@@H](C[C@H]23)[C@@]1(OC(C)=O)C[C@H](OC)[C@H]2C[C@@H]4[C@]1(OC(C)=O)[C@H]2OC` has a logLD50 of 1.16. `CCN1C[C@@]2(COC)[C@H]3[C@@H](OC)[C@@H]4C1[C@]3([C@@H](OC)C[C@H]2OC(C)=O)[C@@H]1C[C@@]2(OC(C)=O)[C@H](OC(=O)c3ccccc3)[C@@H]1[C@]4(OC(C)=O)[C@@H](OC(C)=O)[C@@H]2OC` gave a logLD50 of 2.1. `CCN1C[C@@H]2CC[C@H](OC)[C@]34C1[C@@H](C[C@H]23)[C@@]1(O)C[C@@H](OC)[C@@]2(O)C[C@@H]4[C@@H]1[C@H]2OC(=O)c1ccccc1` showed a logLD50 of 1.45. `CCN1C[C@]2(COC)[C@H](O)C[C@H](OC)[C@]34C1[C@@H]([C@H](OC)[C@H]23)[C@]1(O)[C@H]2[C@@H](OC(=O)c3ccccc3)[C@](O)(C[C@H]24)[C@@H](OC)[C@@H]1O` gave a logLD50 of 1. Work on `CCN1C[C@]2(COC)[C@H](O)C[C@H](OC)[C@]34C1[C@@H]([C@H](OC)[C@H]23)[C@]1(OC(C)=O)[C@H]2[C@@H](OC(=O)c3ccccc3)[C@](O)(C[C@H]24)[C@@H](OC)[C@@H]1O` (stereo in doubt; 1) yielded a logLD50 of -0.92. Work on `CCN1C[C@]2(COC)[C@H](O)C[C@H](OC)[C@]34C1[C@@H]([C@H](OC)[C@H]23)[C@@]1(O)C[C@H](OC)[C@@]2(O)C[C@@H]4[C@@H]1[C@H]2OC(=O)c1ccccc1` yielded a logLD50 of 2.15. Work on `CCN1C[C@]2(C)CC[C@H](O)[C@]34C1[C@@H](C[C@H]23)[C@@]1(O)C[C@H](OC)[C@H]2C[C@@H]4[C@@H]1[C@H]2O` [KARAKOLINE] yielded a logLD50 of 1.71. In the case of `CCN1C[C@]2(COC)[C@H](O)C[C@H](OC)[C@]34C1[C@@H]([C@H](OC)[C@H]23)[C@@]1(OC(C)=O)C[C@H](OC)[C@@]2(O)C[C@@H]4[C@@H]1[C@H]2OC(=O)c1ccc(OC)c(OC)c1`, the logLD50 is reported as 2.56. `CCN1C[C@]2(COC)CC[C@H](O)[C@]34C1[C@@](O)([C@@H](OC)[C@H]23)[C@@]1(O)C[C@H](OC)[C@H]2C[C@@H]4[C@@H]1[C@H]2OC` [DELSOLINE] gave a logLD50 of 2.24. Work on `CCN1C[C@]2(COC)[C@H](O)C[C@H](OC)[C@]34C1[C@@H]([C@H](OC)[C@H]23)[C@@]1(OC(C)=O)C[C@H](OC)[C@@]2(O)C[C@@H]4[C@@H]1[C@H]2OC(=O)c1ccccc1` yielded a logLD50 of -0.33. Work on `CCN1C[C@]2(O)CC[C@H](OC)[C@]34C1[C@@H](C[C@H]23)[C@@]1(O)C[C@H](OC)[C@H]2C[C@@H]4[C@]1(O)[C@H]2OC` yielded a logLD50 of 2.15. `CCN1C[C@]2(OC(=O)c3ccccc3NC(C)=O)CC[C@H](OC)[C@]34C1[C@@H](C[C@H]23)[C@@]1(O)C[C@H](OC)[C@H]2C[C@@H]4[C@]1(O)[C@H]2OC` was tested, and the logLD50 was 0.84. `Br.COC[C@@]12CC[C@H](OC)[C@]34C([C@@H]([C@H](OC)[C@H]13)[C@]1(O)[C@H]3[C@@H](OC(=O)c5ccccc5)[C@](O)(C[C@H]34)[C@@H](OC)[C@@H]1O)N(C)C2` was tested, and the logLD50 was 1.41.
